{
  "source": "patent US8557798",
  "details": "from COC(=O)c1cccc(CN2C(=O)NC(C)(c3cccc(CCCN)c3)C2=O)c1; amide bond; sodium methoxide; MeOH; 7.5 mM; 85.0 °C; 96.0 h",
  "data": [
    {"smiles": "CC12NC(=O)N(Cc3cccc(c3)C(=O)NCCCc3cccc1c3)C2=O", "note": "(stereo not shown)", "values": [
      {"measurement": "ring closure, yield of all isomers", "result": 48, "unit": "%"}
    ]}
  ]
}
